Legend:
Test in all cases: NCI 60 human tumor cell line screen (SRB)
Assay type in all cases: cell-based
[1] = tested on: HL-60(TB); details: HL-60(TB) (Leukemia); 48 h
Outline: (§1)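 Cells plated 24 h before dosing, with time-zero plates TCA-fixed at drug addition; five concentrations (10-fold or ½-log dilutions) added and incubated 48 h at 37 °C, 5% CO2. Adherent cells fixed with 10% TCA, stained with 0.4% SRB, absorbance read at 515 nm; GI50, TGI and LC50 derived from percentage growth versus time zero and control.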

[2] = tested on: SF-539; details: SF-539 (CNS Cancer); 48 h
Outline: as §1

[3] = tested on: SK-MEL-28; details: SK-MEL-28 (Melanoma); 48 h
Outline: as §1

[4] = tested on: 786-0; details: 786-0 (Renal Cancer); 48 h
Outline: as §1

[5] = tested on: HCC-2998; details: HCC-2998 (Colon Cancer); 48 h
Outline: as §1

[6] = tested on: SF-268; details: SF-268 (CNS Cancer); 48 h
Outline: as §1

[7] = tested on: NCI-H23; details: NCI-H23 (Non-Small Cell Lung Cancer); 48 h
Outline: as §1

[8] = tested on: HT29; details: HT29 (Colon Cancer); 48 h
Outline: as §1

[9] = tested on: A498; details: A498 (Renal Cancer); 48 h
Outline: as §1

[10] = tested on: SK-OV-3; details: SK-OV-3 (Ovarian Cancer); 48 h
Outline: as §1

[11] = tested on: ACHN; details: ACHN (Renal Cancer); 48 h
Outline: as §1

[12] = tested on: HCT-15; details: HCT-15 (Colon Cancer); 48 h
Outline: as §1

Row | Compound | Log10GI50 [2] | Log10LC50 [2] | Log10TGI50 [2] | Log10GI50 [3] | Log10LC50 [3] | Log10TGI50 [3] | Log10GI50 [4] | Log10LC50 [4] | Log10TGI50 [4] | Log10GI50 [5] | Log10LC50 [5] | Log10TGI50 [5] | Log10GI50 [6] | Log10LC50 [6] | Log10TGI50 [6] | Log10GI50 [7] | Log10LC50 [7] | Log10TGI50 [7] | Log10GI50 [8] | Log10LC50 [8] | further results
1 | Cc1ncc(C(=O)N[C@@H](COC(F)F)C(=O)N[C@@H](COC(F)F)C(=O)N[C@@H](Cc2ccccc2)C(=O)[C@@]2(C)CO2)s1 [Example 1, 2-methyl-thiazole-5-carboxylic acid ((S)-1-{(S)-1-[(S)-1-benzyl-2-((R)-2-methyloxiranyl)-2-oxo-ethylcarbamoyl]-2-difluoromethoxyethylcarbamoyl}-2-difluoromethoxyethyl)-amide] | −7.15 | −4.27 | −6.44 | −6.85 | −4.69 | −6.12 | −6.43 | >−4.00 | −4.62 | −6.74 | −6.15 | −6.45 | −6.98 | >−4.00 | −5.90 | −6.85 | −5.27 | −5.92 | −7.29 | −4.32 | Log10GI50 [1]: −6.56; Log10LC50 [1]: >−4.00; Log10TGI50 [1]: >−4.00; Log10TGI50 [8]: −6.22; Log10GI50 [9]: −8.00; Log10LC50 [9]: −4.88; Log10TGI50 [9]: −6.38; Log10GI50 [10]: −6.06; Log10LC50 [10]: >−4.00; Log10TGI50 [10]: >−4.00; Log10GI50 [11]: −6.53; Log10LC50 [11]: >−4.00; Log10TGI50 [11]: −4.81; Log10GI50 [12]: −5.65; Log10LC50 [12]: −4.16; Log10TGI50 [12]: −4.93
2 | CC(C)C[C@H](NC(=O)[C@H](Cc1ccccc1)NC(=O)[C@H](COC(F)F)NC(=O)CN1CCOCC1)C(=O)[C@@]1(C)CO1 [Example 25, (2S)-2-[[(2S)-3-(difluoromethoxy)-2-[(2-morpholinoacetyl)amino]propanoyl]amino]-N-[(1S)-3-methyl-1-[(2R)-2-methyloxirane-2-carbonyl]butyl]-3-phenyl-propanamide] | −7.63 | −6.48 | −7.26 | −7.38 | −4.82 | −6.69 | −7.20 | −5.44 | −6.49 | −7.74 | −7.20 | −7.47 | −7.60 | >−4.00 | −7.14 | −7.62 | −5.64 | −7.13 | −7.45 | >−4.00 | Log10GI50 [1]: −7.45; Log10LC50 [1]: >−4.00; Log10TGI50 [1]: −6.35; Log10TGI50 [8]: −5.84; Log10GI50 [9]: −7.61; Log10LC50 [9]: −6.34; Log10TGI50 [9]: −7.03; Log10GI50 [10]: −7.30; Log10TGI50 [10]: −6.60; Log10GI50 [11]: −7.01; Log10LC50 [11]: >−4.00; Log10TGI50 [11]: >−4.00; Log10GI50 [12]: −6.47; Log10LC50 [12]: >−4.00; Log10TGI50 [12]: >−4.00
3 | C[C@]1(C(=O)[C@H](Cc2ccccc2)NC(=O)[C@H](COC(F)F)NC(=O)[C@H](COC(F)F)NC(=O)CN2CCOCC2)CO1 [Example 26, (S)-N-{(S)-1-[(S)-1-Benzyl-2-((R)-2-methyl-oxiranyl)-2-oxo-ethylcarbamoyl]-2-difluoromethoxyethyl}-3-difluoromethoxy-2-(2-morpholin-4-yl-acetylamino)-propio-namide] | −7.63 | −6.48 | −7.26 | −7.38 | −4.82 | −6.69 | −7.20 | −5.44 | −6.49 | −7.74 | −7.20 | −7.47 | −7.60 | >−4.00 | −7.14 | −7.62 | −5.64 | −7.13 | −7.45 | >−4.00 | Log10GI50 [1]: −7.45; Log10LC50 [1]: >−4.00; Log10TGI50 [1]: −6.35; Log10TGI50 [8]: −5.84; Log10GI50 [9]: −7.61; Log10LC50 [9]: −6.34; Log10TGI50 [9]: −7.03; Log10GI50 [10]: −7.30; Log10TGI50 [10]: −6.60; Log10GI50 [11]: −7.01; Log10LC50 [11]: >−4.00; Log10TGI50 [11]: >−4.00; Log10GI50 [12]: −6.47; Log10LC50 [12]: >−4.00; Log10TGI50 [12]: >−4.00
4 | C[C@]1(C(=O)[C@H](Cc2ccccc2)NC(=O)[C@H](Cc2ccccc2)NC(=O)[C@H](COC(F)F)NC(=O)CN2CCOCC2)CO1 [Example 29] | −7.39 | −4.49 | −6.76 | −7.13 | >−4.00 | −6.34 | −6.55 | −4.87 | −5.96 | −6.80 | −6.21 | −6.50 | −7.27 | >−4.00 | −6.50 | −7.21 | >−4.00 | −5.55 | −7.31 | >−4.00 | Log10TGI50 [8]: −4.77; Log10GI50 [9]: −6.68; Log10LC50 [9]: −5.47; Log10TGI50 [9]: −6.11; Log10GI50 [10]: −6.46; Log10LC50 [10]: >−4.00; Log10TGI50 [10]: −5.78; Log10GI50 [11]: −6.59; Log10LC50 [11]: >−4.00; Log10TGI50 [11]: >−4.00; Log10GI50 [12]: −6.20; Log10LC50 [12]: >−4.00; Log10TGI50 [12]: >−4.00

— patent US9441012B2, “Fluorinated epoxyketone-based compounds and uses thereof as proteasome inhibitors” (FLUORINOV PHARMA INC., priority 2012, dated 2016)
